17 compounds from patent US7307061B2, “β-peptoids with antimicrobial activity” (E.I. du Pont de Nemours and Company, priority 2004, dated 2007) can be followed below.

≈ marks a conversion by molar mass, not a printed value.

For the test, the system named is E. coli ATCC 25922. In kind it is cell-based. The following applies: ATCC 25922, 24 h. How it is done:
The minimal inhibitory concentration (MIC) for the peptoids was determined in sterile microtiter plates in a final volume of 200 μl using Trypticase Soy Broth (TSB; Difco Laboratories, Detroit, Mich.) as the growth medium. Serial two-fold dilutions of the peptoid stock were made in the plate wells such that concentrations ranged from 512 to 2 μg/ml in a volume of 100 μL. Each well was then inoculated with 100 μl of a dilute suspension of bacteria in TSB yielding a final concentration of 1×10^4 bacteria/ml. The final peptoid concentrations ranged from 256 μg/ml to […]. The assay plates were incubated at 37° C. for 24 hours inside a Bioscreen C microtitre plate reader (Thermo Labsystems; Vantaa, Finland). Optical Density (OD) of the medium at 600 nm was recorded every 20 minutes to monitor cell growth. The lowest concentration of peptoid preventing bacterial growth during the 24 hr period was defined as the MIC.
Table 1. Antibacterial activity of peptoids against E. coli ATCC 25922. The general structure for each of the Compounds 20 to 41 is represented by Formula V: […]
For the compound `CC(=O)N(CCC(=O)N(CCCN(C)C)CCC(=O)N(CCC(=O)N(CCC(=O)N(CCCN(C)C)CCC(=O)N(CCC(=O)N(CCC(=O)N(CCCN(C)C)CCC(=O)N(CCC(=O)NC(CCCCN)C(N)=O)CC(C)C)Cc1ccccc1)CC(C)C)Cc1ccccc1)CC(C)C)Cc1ccccc1` (centres unmarked) [Compound 20, Ac(Bz-DMAP-Ibu)3-Lys-NH2], the MIC (commonly the smallest concentration in the dilution series that meets the test's criterion for growth inhibition) was 128 µg/mL (≈ 84.1 µM). The value for `CC(=O)N(CCC(=O)N(CCCN(C)C)CCC(=O)N(CCC(=O)N(CCC(=O)N(CCCN(C)C)CCC(=O)N(CCC(=O)N(CCC(=O)N(CCCN(C)C)CCC(=O)N(CCC(=O)N(CCC(=O)N(CCCN(C)C)CCC(=O)N(CCC(=O)N(CCC(=O)N(CCCN(C)C)CCC(=O)N(CCC(=O)NC(CCCCN)C(N)=O)CC(C)C)Cc1ccccc1)CC(C)C)Cc1ccccc1)CC(C)C)Cc1ccccc1)CC(C)C)Cc1ccccc1)CC(C)C)Cc1ccccc1` (centres unmarked) [Compound 21, Ac(Bz-DMAP-Ibu)5-Lys-NH2] was 128 µg/mL (≈ 53.1 µM).

The compound `CC(=O)N(CCC(=O)N(CCCN(C)C)CCC(=O)N(CCC(=O)N(CCC(=O)N(CCCN(C)C)CCC(=O)N(CCC(=O)N(CCC(=O)N(CCCN(C)C)CCC(=O)N(CCC(=O)N(CCC(=O)N(CCCN(C)C)CCC(=O)N(CCC(=O)N(CCC(=O)N(CCCN(C)C)CCC(=O)N(CCC(=O)N(CCC(=O)N(CCCN(C)C)CCC(=O)N(CCC(=O)NC(CCCCN)C(N)=O)CC(C)C)Cc1ccccc1)CC(C)C)Cc1ccccc1)CC(C)C)Cc1ccccc1)CC(C)C)Cc1ccccc1)CC(C)C)Cc1ccccc1)CC(C)C)Cc1ccccc1` (centres unmarked) [Compound 22, Ac(Bz-DMAP-Ibu)6-Lys-NH2] registered an MIC of 128 µg/mL (≈ 44.8 µM). With `CC(=O)N(CCC(=O)N(CCC(=O)N(CCCN(C)C)CCC(=O)N(CCC(=O)N(CCC(=O)N(CCCN(C)C)CCC(=O)N(CCC(=O)N(CCC(=O)N(CCCN(C)C)CCC(=O)NC(CCCCN)C(N)=O)CC(C)C)Cc1ccccc1)CC(C)C)Cc1ccccc1)CC(C)C)Cc1ccccc1` (centres unmarked) [Compound 23, Ac(Bz-Ibu-DMAP)3-Lys-NH2], the minimum inhibitory concentration (MIC) was found to be 512 µg/mL (≈ 337 µM). In the case of `CC(=O)N(CCC(=O)N(CCC(=O)N(CCCN(C)C)CCC(=O)N(CCC(=O)N(CCC(=O)N(CCCN(C)C)CCC(=O)N(CCC(=O)N(CCC(=O)N(CCCN(C)C)CCC(=O)N(CCC(=O)N(CCC(=O)N(CCCN(C)C)CCC(=O)NC(CCCCN)C(N)=O)CC(C)C)Cc1ccccc1)CC(C)C)Cc1ccccc1)CC(C)C)Cc1ccccc1)CC(C)C)Cc1ccccc1` (centres unmarked) [Compound 24, Ac(Bz-Ibu-DMAP)4-Lys-NH2], the minimal inhibitory concentration (MIC) is 128 µg/mL (≈ 65.1 µM). This MIC is about 4-fold lower than that of the compound before.

In turn, `CC(=O)N(CCC(=O)N(CCC(=O)N(CCCN(C)C)CCC(=O)N(CCC(=O)N(CCC(=O)N(CCCN(C)C)CCC(=O)N(CCC(=O)N(CCC(=O)N(CCCN(C)C)CCC(=O)N(CCC(=O)N(CCC(=O)N(CCCN(C)C)CCC(=O)N(CCC(=O)N(CCC(=O)N(CCCN(C)C)CCC(=O)NC(CCCCN)C(N)=O)CC(C)C)Cc1ccccc1)CC(C)C)Cc1ccccc1)CC(C)C)Cc1ccccc1)CC(C)C)Cc1ccccc1)CC(C)C)Cc1ccccc1` (centres unmarked) [Compound 25, Ac(Bz-Ibu-DMAP)5-Lys-NH2] returned an MIC of 128 µg/mL (≈ 53.1 µM).

With `CC(=O)N(CCC(=O)N(CCN)CCC(=O)N(CCC(=O)N(CCN)CCC(=O)N(CCC(=O)N(CCN)CCC(=O)N(CCC(=O)N(CCN)CCC(=O)N(CCC(=O)N(CCN)CCC(=O)N(CCC(=O)N(CCN)CCC(=O)NC(CCCCN)C(N)=O)CC(C)C)CC(C)C)CC(C)C)CC(C)C)CC(C)C)CC(C)C` (centres unmarked) [Compound 26, Ac(Ibu-Aminoethyl)6-Lys-NH2], the minimum inhibitory concentration (MIC) was determined as 128 µg/mL (≈ 78.3 µM).

In the case of `CC(=O)N(CCC(=O)N(CCCN(C)C)CCC(=O)N(CCC(=O)N(CCCN(C)C)CCC(=O)N(CCC(=O)N(CCCN(C)C)CCC(=O)N(CCC(=O)N(CCCN(C)C)CCC(=O)N(CCC(=O)N(CCCN(C)C)CCC(=O)NC(CCCCN)C(N)=O)CC(C)C)CC(C)C)CC(C)C)CC(C)C)CC(C)C` (centres unmarked) [Compound 27, Ac(Ibu-DMAP)5-Lys-NH2], the MIC is over 512 µg/mL. For the compound `CC(=O)N(CCC(=O)N(CCCN(C)C)CCC(=O)N(CCC(=O)N(CCCN(C)C)CCC(=O)N(CCC(=O)N(CCCN(C)C)CCC(=O)N(CCC(=O)N(CCCN(C)C)CCC(=O)N(CCC(=O)N(CCCN(C)C)CCC(=O)N(CCC(=O)N(CCCN(C)C)CCC(=O)N(CCC(=O)N(CCCN(C)C)CCC(=O)N(CCC(=O)N(CCCN(C)C)CCC(=O)NC(CCCCN)C(N)=O)CC(C)C)CC(C)C)CC(C)C)CC(C)C)CC(C)C)CC(C)C)CC(C)C)CC(C)C` (centres unmarked) [Compound 29, Ac(Ibu-DMAP)8-Lys-NH2], the MIC is over 512 µg/mL. The compound `CC(=O)N(CCC(=O)N(CCN)CCC(=O)N(CCC(=O)N(CCN)CCC(=O)N(CCC(=O)N(CCN)CCC(=O)N(CCC(=O)N(CCN)CCC(=O)N(CCC(=O)N(CCN)CCC(=O)NC(CCCCN)C(N)=O)CC(C)C)CC(C)C)CC(C)C)CC(C)C)CC(C)C` (centres unmarked) [Compound 30, Ac(Ibu-Aminoethyl)5-Lys-NH2] came in with a minimum inhibitory concentration (MIC) of over 256 µg/mL.

Consider `CC(=O)N(CCC(=O)N(CCN)CCC(=O)N(CCC(=O)N(CCN)CCC(=O)N(CCC(=O)N(CCN)CCC(=O)N(CCC(=O)N(CCN)CCC(=O)N(CCC(=O)N(CCN)CCC(=O)N(CCC(=O)N(CCN)CCC(=O)N(CCC(=O)N(CCN)CCC(=O)N(CCC(=O)N(CCN)CCC(=O)NC(CCCCN)C(N)=O)CC(C)C)CC(C)C)CC(C)C)CC(C)C)CC(C)C)CC(C)C)CC(C)C)CC(C)C` (centres unmarked) [Compound 32, Ac(Ibu-Aminoethyl)8-Lys-NH2], for which the minimum inhibitory concentration (MIC) is 256 µg/mL (≈ 121 µM). The value for `CC(=O)N(CCC(=O)N(CCC(=O)N(CCN)CCC(=O)N(CCC(=O)N(CCC(=O)N(CCN)CCC(=O)N(CCC(=O)N(CCC(=O)N(CCN)CCC(=O)NC(CCCCN)C(N)=O)CC(C)C)CC(C)C)CC(C)C)CC(C)C)CC(C)C)CC(C)C` (stereo not drawn) [Compound 33, Ac(Ibu-Ibu-Aminoethyl)3-Lys-NH2] was over 512 µg/mL. `CC(=O)N(CCC(=O)N(CCC(=O)N(CCN)CCC(=O)N(CCC(=O)N(CCC(=O)N(CCN)CCC(=O)N(CCC(=O)N(CCC(=O)N(CCN)CCC(=O)N(CCC(=O)N(CCC(=O)N(CCN)CCC(=O)NC(CCCCN)C(N)=O)CC(C)C)CC(C)C)CC(C)C)CC(C)C)CC(C)C)CC(C)C)CC(C)C)CC(C)C` (stereo not drawn) [Compound 34, Ac(Ibu-Ibu-Aminoethyl)4-Lys-NH2]: the MIC was 256 µg/mL (≈ 154 µM). The value for `CC(=O)N(CCC(=O)N(CCC(=O)N(CCN)CCC(=O)N(CCC(=O)N(CCC(=O)N(CCN)CCC(=O)N(CCC(=O)N(CCC(=O)N(CCN)CCC(=O)N(CCC(=O)N(CCC(=O)N(CCN)CCC(=O)N(CCC(=O)N(CCC(=O)N(CCN)CCC(=O)NC(CCCCN)C(N)=O)CC(C)C)CC(C)C)CC(C)C)CC(C)C)CC(C)C)CC(C)C)CC(C)C)CC(C)C)CC(C)C)CC(C)C` (stereo not drawn) [Compound 36, Ac(Ibu-Ibu-Aminoethyl)5-Lys-NH2] was 256 µg/mL (≈ 126 µM); that for `CC(=O)N(CCC(=O)N(CCC(=O)N(CCCCN)CCC(=O)N(CCC(=O)N(CCC(=O)N(CCCCN)CCC(=O)NC(CCCCN)C(N)=O)CC(C)C)CC(C)C)CC(C)C)CC(C)C` (stereo not drawn) [Compound 37, Ac(Ibu-Ibu-Aminobutyl)2-Lys-NH2] was over 512 µg/mL. `CC(=O)N(CCC(=O)N(CCC(=O)N(CCCCN)CCC(=O)N(CCC(=O)N(CCC(=O)N(CCCCN)CCC(=O)N(CCC(=O)N(CCC(=O)N(CCCCN)CCC(=O)NC(CCCCN)C(N)=O)CC(C)C)CC(C)C)CC(C)C)CC(C)C)CC(C)C)CC(C)C` (stereo not drawn) [Compound 38, Ac(Ibu-Ibu-Aminobutyl)3-Lys-NH2]: the minimal inhibitory concentration (MIC) is over 512 µg/mL. The value for `CC(=O)N(CCC(=O)N(CCCCN)CCC(=O)N(CCC(=O)N(CCCCN)CCC(=O)N(CCC(=O)N(CCCCN)CCC(=O)NC(CCCCN)C(N)=O)CC(C)C)CC(C)C)CC(C)C` (centres unmarked) [Compound 41, Ac(Ibu-Aminobutyl)3-Lys-NH2] was 512 µg/mL (≈ 514 µM).
